Experimental data: US7230017B2, “Dihydropyridinone derivatives” (Bayer Healthcare AG, priority 2002, dated 2007)

These compounds were tested on human polymorphonuclear cells (PMNs) (assay: In vitro PMN elastolysis assay (3H-elastin)). Settings: at 1.2 μM; n=3 different donors at 3.6×10^5 cells per well; 4 hours at 37° C.
Type: cell-based
Procedure: In Vitro PMN Elastolysis Assay
This assay is used to determine the elastolytic potential of human polymorphonuclear cells (PMNs) and assess the proportion of degradation due to neutrophil elastase [cf. Z. W. She et al., Am. J. Respir. Cell. Mol. Biol. 9, 386–392 (1993)].
Tritiated elastin, in suspension, is coated on to a 96 well plate at 10 μg per well. Test and reference [ZD-0892 (J. Med. Chem. 40, 1876–1885, 3173–3181 (1997), WO 95/21855) and al protease inhibitor (α1PI)] compounds are added to the wells at the appropriate concentrations. Human PMNs are separated from peripheral venous blood of healthy donors and resuspended in culture media. The neutrophils are added to the coated wells at concentrations ranging between 1×10^6 to 1×10^5 cells per well. Porcine pancreatic elastase (1.3 μM) is used as a positive control for the assay, and α1PI (1.2 μM) is used as the positive inhibitor of neutrophil elastase. The cellular control is PMNs without compound at each appropriate cell density. The cells plus compounds are incubated in a humidified incubator at 37° C. for 4 hours. The plates are centrifuged to allow the harvest of cell supernatant only. […] The plates are dried until no liquid is visible in the wells and read in a beta counter for 3 minutes per well. […]
The compounds of this invention are evaluated for their inhibitory activity in this HNE-dependent model of neutrophil elastolysis.

Compound | inhibition of elastolysis (mean±s.e.m.)
α1PI: al protease inhibitor (α1PI), used as the positive inhibitor of neutrophil elastase | 83.46±3.97%

Same assay, conditions: n=2 different donors at 3.6×10^5 cells per well; 4 hours at 37° C.; read-out: IC50 (mean±s.e.m.)

IC50 | Compound
45.5 ± 7.75 nM | COc1ccc(C(=O)N[C@H](C(=O)N2CCC[C@H]2C(=O)N[C@H](C(=O)C(F)(F)F)C(C)C)C(C)C)cc1 [ZD-0892]

These compounds were tested against T1, human neutrophil elastase (HNE) (Homo sapiens, UniProt P08246) (assay: In vitro inhibition of HNE using a fluorogenic peptide substrate (continuous read-out signal, 384 MTP assay format)). Settings: substrate MeOSuc-Ala-Ala-Pro-Val-AMC, 37° C.
T1 construct: purchased SERVA Electrophoresis GmbH, Heidelberg, Germany #20927.01
T1 sequence (P08246 30-267): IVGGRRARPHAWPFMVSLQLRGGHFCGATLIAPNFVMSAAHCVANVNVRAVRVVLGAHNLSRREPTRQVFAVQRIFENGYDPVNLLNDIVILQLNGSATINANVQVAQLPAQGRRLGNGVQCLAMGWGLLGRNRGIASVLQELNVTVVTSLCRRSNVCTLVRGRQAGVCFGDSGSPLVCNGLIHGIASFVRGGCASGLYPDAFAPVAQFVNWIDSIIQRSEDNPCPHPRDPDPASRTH
Type: biochemical
Procedure: I. In Vitro Enzyme Assays of Human Neutrophil Elastase (HNE)
assay buffer: 0.1 M HEPES-NaOH buffer pH 7.4, 0.5 M NaCl, 0.1% (w/v) bovine serum albumin;
suitable concentration (see below) of substrate in assay buffer;
suitable concentration of test compounds diluted with assay buffer from a 10 mM stock solution in DMSO.
The test solution is prepared by mixing 10 μl of test compound dilution, 20 μl of HNE enzyme dilution (final concentration 8–0.4 μU/ml, routinely 2.1 μU/ml) and 20 μl of substrate dilution (final concentration 1 mM–1 μM, routinely 20 μM), respectively. The solution is incubated for 0–2 hrs at 37° C. (routinely one hour). The fluorescence of the liberated AMC due to the enzymatic reaction is measured at 37° C. (TECAN spectra fluor plus plate reader). […] IC50 values are determined by RFU-versus-[I] plots. Km and Km(app.) values are determined by Lineweaver-Burk plots and converted to Ki values by Dixon plots.

Compound | IC50
CCNC(=O)C1=C(C)N(c2cccc(C(F)(F)F)c2)C(=O)CC1c1ccc(C#N)cc1 (stereo not shown) [Example 77] | 350 nM
CCOC(=O)C1=C(C)N(c2cccc(C(F)(F)F)c2)C(=O)C(C(=O)OCC)C1c1cc2cc(C#N)ccc2o1 (stereo not shown) [Example 15, Diethyl 4-(5-cyano-1-benzofuran-2-yl)-6-methyl-2-oxo-1-[3-(trifluoromethyl)phenyl]-1,2,3,4-tetrahydro-3,5-pyridinedicarboxylate] | 200 nM
CCOC(=O)C1=C(C)N(c2cccc(C(F)(F)F)c2)C(=O)C(C(=O)OCC)C1c1ccc(C#N)cc1 (stereo not shown) [Example 1] | 30 nM
CCOC(=O)C1=C(C)N(c2cccc(C(F)(F)F)c2)C(=O)C(C(N)=O)C1c1ccc(C#N)cc1 (stereo not shown) [Example 3] | 20 nM
CC(=O)C1=C(C)N(c2cccc(C(F)(F)F)c2)C(=O)C(C(=O)N(C)C)C1c1ccc(C#N)cc1 (stereo not shown) [Example 13, 5-Acetyl4-(4-cyanophenyl)-N,N,6-trimethyl-2-oxo-1-[3-(trifluoromethyl)phenyl]-1,2,3,4-tetrahydro-3-pyridinecarboxamide] | 25 nM

Other lines, results leading:

IC50 | Compound
13 nM | CC1=C(C#N)C(c2ccc(C#N)cc2)C(C(N)=O)C(=O)N1c1cccc(C(F)(F)F)c1 (stereo not shown) [Example 7, 5-Cyano-4-(4-cyanophenyl)-6-methyl-2-oxo-1-[3-(trifluoromethyl)phenyl]-1,2,3,4-tetrahydro-3-pyridinecarboxamide]
25 nM | CC1=C(C#N)C(c2ccc(C#N)cc2)C(C(=O)NCCC(=O)O)C(=O)N1c1cccc(C(F)(F)F)c1 (stereo not drawn) [Example 19, N-({5-Cyano-4-(4-cyanophenyl)-6-methyl-2-oxo-1-[3-(trifluoromethyl)phenyl]-1,2,3,4-tetrahydro-3-pyridinyl}carbonyl)-β-alanine]
25 nM | CC1=C(C#N)C(c2ccc(C#N)cc2)C(C(=O)N(C)C)C(=O)N1c1cccc(C(F)(F)F)c1 (stereo not shown) [Example 12, 5-Cyano-4-(4-cyanophenyl)-N,N,6-trimethyl-2-oxo-1-[3-(trifluoromethyl)phenyl]-1,2,3,4-tetrahydro-3-pyridinecarboxamide]
30 nM | COCCNC(=O)C1C(=O)N(c2cccc(C(F)(F)F)c2)C(C)=C(C#N)C1c1ccc(C#N)cc1 (stereo not shown) [Example 20, 5-Cyano-4-(4-cyanophenyl)-N-(2-methoxyethyl)-6-methyl-2-oxo-1-[3-(trifluoromethyl)phenyl]-1,2,3,4-tetrahydro-3-pyridinecarboxamide]
15 nM | CC1=C(C#N)C(c2ccc(C#N)cc2)C(C(=O)NCCO)C(=O)N1c1cccc(C(F)(F)F)c1 (stereo not shown) [Example 68, 5-Cyano-4-(4-cyanophenyl)-6-methyl-2-oxo-1-[3-(trifluoromethyl)phenyl]-1,2,3,4-tetrahydropyridine-3-carboxylic acid (2-hydroxyethyl)amide]
8 nM | CC1=C(C#N)C(c2ccc(C#N)cc2)C(C(N)=O)C(=O)N1c1cccc(C(F)(F)F)c1 (single isomer, unassigned; (-)) [Example 98, (−)-5-Cyano-4-(4-cyanophenyl)-6-methyl-2-oxo-1-[3-(trifluoromethyl)phenyl]-1,2,3,4-tetrahydro-3-pyridinecarboxamide]
